Measured values published in ChEMBL document CHEMBL1201862, “PubChem BioAssay data set” (2004).
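Cultured in 96-well plates, cells were exposed to test compound for 48 hours across five concentrations. GI50 = concentration required for 50% inhibition of growth.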 Activity calls are given as the source filed them. Rule as the data show it: active = GI50 up to about 1.1 µM and inactive = higher.

Assays:
Test in all cases: inhibition of tumour cell growth, NCI panel, 48 h
SF-268 = system: SF-268
MDA-N = system: MDA-N
NCI/ADR-RES = system: NCI/ADR-RES
IGROV-1 = system: IGROV-1
UACC-257 = system: UACC-257
U-251 = system: U-251
DU-145 = system: DU-145
HCT-15 = system: HCT-15
SF-295 = system: SF-295
NCI-H23 = system: NCI-H23
UACC-62 = system: UACC-62
KM12 = system: KM12
MCF7 = system: MCF7
OVCAR-5 = system: OVCAR-5
OVCAR-3 = system: OVCAR-3
EKVX = system: EKVX
BT-549 = system: BT-549
SNB-75 = system: SNB-75
SK-MEL-5 = system: SK-MEL-5
CCRF-CEM = system: CCRF-CEM

Measured: GI50

CCOC(=O)/C(=C\NC(N)=S)C(=O)c1ccccc1
inactive: SF-268 > 100 µM | MDA-N > 100 µM | NCI/ADR-RES > 100 µM | IGROV-1 > 100 µM | UACC-257 > 100 µM | U-251 > 100 µM | DU-145 > 100 µM | SF-295 > 100 µM | NCI-H23 > 100 µM | UACC-62 > 100 µM | KM12 > 100 µM | MCF7 > 100 µM | OVCAR-5 > 100 µM | OVCAR-3 > 100 µM | EKVX > 100 µM | BT-549 > 100 µM | SNB-75 > 100 µM | SK-MEL-5 > 100 µM
> 100 µM: HCT-15

COc1ccc(C(=O)CC(c2ccccc2)[C@H]2C(c3ccc(OC)cc3)=Nc3c(nc(SC)n(C)c3=O)NC2c2ccccc2)cc1 (some centres undefined)
inactive: SF-268 > 100 µM | MDA-N > 100 µM | NCI/ADR-RES > 100 µM | IGROV-1 > 100 µM | UACC-257 > 100 µM | U-251 > 100 µM | CCRF-CEM > 100 µM | DU-145 > 100 µM | SF-295 > 100 µM | NCI-H23 > 100 µM | UACC-62 > 100 µM | KM12 > 100 µM | MCF7 > 100 µM | OVCAR-5 > 100 µM | OVCAR-3 > 100 µM | EKVX > 100 µM | BT-549 > 100 µM | SK-MEL-5 41.3 µM
> 100 µM: HCT-15

Cc1[nH]n(-c2nc(O)c(-c3ccccc3)c(=O)[nH]2)c(=O)c1CCO
> 100 µM: HCT-15
inactive: SF-268 > 100 µM | MDA-N > 100 µM | NCI/ADR-RES > 100 µM | IGROV-1 > 100 µM | UACC-257 > 100 µM | U-251 > 100 µM | CCRF-CEM > 100 µM | DU-145 > 100 µM | SF-295 > 100 µM | NCI-H23 > 100 µM | UACC-62 > 100 µM | KM12 > 100 µM | MCF7 > 100 µM | OVCAR-5 > 100 µM | EKVX > 100 µM | BT-549 > 100 µM | SNB-75 54.5 µM | SK-MEL-5 > 100 µM

O=c1[nH]c2ccc(CC(=S)N3CCN(c4ccccc4)CC3)cc2s1
inactive: SF-268 26.1 µM | MDA-N > 100 µM | NCI/ADR-RES 13.2 µM | IGROV-1 9.16 µM | UACC-257 > 100 µM | U-251 3.95 µM | CCRF-CEM 68.9 µM | DU-145 51.6 µM | SF-295 12.9 µM | NCI-H23 20.7 µM | UACC-62 62.7 µM | KM12 26.2 µM | MCF7 92 µM | OVCAR-5 15.7 µM | OVCAR-3 23.4 µM | EKVX 26.5 µM | BT-549 26.6 µM
42.2 µM: HCT-15

CNC(=O)ON(C(C)=O)C(=O)NC [CARACEMIDE]
inactive: SF-268 75 µM | MDA-N 15.8 µM | NCI/ADR-RES 67.1 µM | IGROV-1 86.9 µM | UACC-257 69.5 µM | U-251 82.8 µM | DU-145 41.3 µM | SF-295 115 µM | NCI-H23 41.8 µM | UACC-62 47.6 µM | KM12 59.8 µM | MCF7 51.5 µM | OVCAR-5 126 µM | OVCAR-3 54.1 µM | BT-549 19.3 µM | SNB-75 70.3 µM | SK-MEL-5 40.3 µM
31 µM: HCT-15

CC12CC(c3ccccc3O1)C(C(=O)Nc1ccc(F)cc1)C(=O)N2 (centres undefined)
> 100 µM: HCT-15
inactive: SF-268 > 100 µM | MDA-N > 100 µM | NCI/ADR-RES 47.4 µM | IGROV-1 49.1 µM | UACC-257 81.8 µM | U-251 > 100 µM | CCRF-CEM 28.2 µM | DU-145 > 100 µM | NCI-H23 44.6 µM | UACC-62 71.6 µM | KM12 > 100 µM | MCF7 > 100 µM | OVCAR-5 > 100 µM | OVCAR-3 > 100 µM | EKVX 45.2 µM | BT-549 38.5 µM | SK-MEL-5 32.5 µM

CC(C)CC(NC=O)C(=O)NC(Cc1ccccc1)NC(=O)CNC(=O)C(C)NC(=O)C(N)Cc1ccc(O)cc1 (centres undefined)
inactive: SF-268 > 100 µM | MDA-N > 100 µM | NCI/ADR-RES > 100 µM | IGROV-1 > 100 µM | U-251 > 100 µM | DU-145 > 100 µM | SF-295 > 100 µM | NCI-H23 > 100 µM | UACC-62 > 100 µM | KM12 > 100 µM | MCF7 > 100 µM | OVCAR-5 > 100 µM | OVCAR-3 > 100 µM | EKVX > 100 µM | BT-549 > 100 µM | SNB-75 > 100 µM | SK-MEL-5 > 100 µM
> 100 µM: HCT-15

CCc1n[nH]c(=O)n1N=C(c1ccccc1)c1ccccc1
inactive: SF-268 > 100 µM | MDA-N > 100 µM | NCI/ADR-RES > 100 µM | IGROV-1 > 100 µM | UACC-257 > 100 µM | U-251 > 100 µM | CCRF-CEM > 100 µM | DU-145 > 100 µM | SF-295 > 100 µM | NCI-H23 > 100 µM | UACC-62 > 100 µM | KM12 > 100 µM | MCF7 > 100 µM | OVCAR-5 58.1 µM | OVCAR-3 > 100 µM | EKVX 32 µM | BT-549 > 100 µM | SK-MEL-5 > 100 µM
> 100 µM: HCT-15

CC(=O)C(C(C)=O)[C@@H]1OC(C)(C)O[C@@H]1[C@H]1COC(C)(C)O1
41.5 µM: HCT-15
inactive: SF-268 30.1 µM | MDA-N 23.3 µM | NCI/ADR-RES 55.6 µM | IGROV-1 35.6 µM | UACC-257 64 µM | U-251 42.8 µM | DU-145 51.8 µM | SF-295 > 100 µM | NCI-H23 34 µM | UACC-62 > 100 µM | KM12 41.4 µM | MCF7 43.8 µM | OVCAR-5 87.9 µM | OVCAR-3 62.8 µM | EKVX 27.7 µM | BT-549 34.9 µM | SK-MEL-5 47.8 µM

CCOC(=O)c1ccc(-c2onc(C)c2Br)[nH]1
36.1 µM: HCT-15
inactive: SF-268 > 100 µM | MDA-N 66.4 µM | NCI/ADR-RES 29.7 µM | IGROV-1 22.7 µM | UACC-257 47.2 µM | U-251 36.4 µM | DU-145 55.3 µM | SF-295 39.5 µM | NCI-H23 46.8 µM | UACC-62 56 µM | KM12 74 µM | MCF7 27.7 µM | OVCAR-5 > 100 µM | OVCAR-3 30.4 µM | EKVX 37 µM | BT-549 34.7 µM | SNB-75 41.7 µM | SK-MEL-5 41.3 µM

CC(C(=O)NCNC(=O)c1ccccc1)C(=O)Nc1ccccc1 (centres undefined)
inactive: SF-268 > 100 µM | MDA-N > 100 µM | NCI/ADR-RES > 100 µM | IGROV-1 > 100 µM | UACC-257 > 100 µM | U-251 > 100 µM | CCRF-CEM > 100 µM | DU-145 > 100 µM | SF-295 > 100 µM | NCI-H23 > 100 µM | UACC-62 > 100 µM | KM12 > 100 µM | MCF7 > 100 µM | OVCAR-5 > 100 µM | EKVX > 100 µM | BT-549 > 100 µM | SNB-75 > 100 µM | SK-MEL-5 > 100 µM
> 100 µM: HCT-15
